Literature values as cited in patent US20030056896A1, “Effective therapy for epilepsies” (priority 1995, published 2003).
Like-named read-outs stand apart in the source and are kept apart here.

Compound	solubility (in water)	solubility (gastrointestinal pH range of 1 to 8)
NC(=O)N1c2ccccc2C=Cc2ccccc21 [carbamazepine]	practically insoluble in water	–
O=C1NC(=O)C(c2ccccc2)(c2ccccc2)N1 [phenytoin]	–	practically insoluble
